Experimental data from article PMC9856672, “SGC-CAMKK2-1: A Chemical Probe for CAMKK2” (Cells, 2023).

Tests used:
SGK2 = target: T1, SGK2 (Homo sapiens, UniProt Q9HBY8); assay: KINOMEscan 1 μM, SGK2; assay type: binding; details: 1000 nM; Entrez SGK2; read-out: Percent Control
T1 construct: purchased Eurofins DiscoverX KINOMEscan
Excerpt: (§1) Supplement cells-12-00287-s001.zip/File S2. KinomeScan data for the CAMKK2 probe and negative control.xlsx, sheet "SGC-CAMKK2-1" | column: Percent Control

MLCK = target: T2, MLCK (Homo sapiens, UniProt Q32MK0); assay: KINOMEscan 1 μM, MLCK; assay type: binding; details: 1000 nM; Entrez MYLK3; read-out: Percent Control
T2 construct: purchased Eurofins DiscoverX KINOMEscan
T2 sequence (Q32MK0 whole entry): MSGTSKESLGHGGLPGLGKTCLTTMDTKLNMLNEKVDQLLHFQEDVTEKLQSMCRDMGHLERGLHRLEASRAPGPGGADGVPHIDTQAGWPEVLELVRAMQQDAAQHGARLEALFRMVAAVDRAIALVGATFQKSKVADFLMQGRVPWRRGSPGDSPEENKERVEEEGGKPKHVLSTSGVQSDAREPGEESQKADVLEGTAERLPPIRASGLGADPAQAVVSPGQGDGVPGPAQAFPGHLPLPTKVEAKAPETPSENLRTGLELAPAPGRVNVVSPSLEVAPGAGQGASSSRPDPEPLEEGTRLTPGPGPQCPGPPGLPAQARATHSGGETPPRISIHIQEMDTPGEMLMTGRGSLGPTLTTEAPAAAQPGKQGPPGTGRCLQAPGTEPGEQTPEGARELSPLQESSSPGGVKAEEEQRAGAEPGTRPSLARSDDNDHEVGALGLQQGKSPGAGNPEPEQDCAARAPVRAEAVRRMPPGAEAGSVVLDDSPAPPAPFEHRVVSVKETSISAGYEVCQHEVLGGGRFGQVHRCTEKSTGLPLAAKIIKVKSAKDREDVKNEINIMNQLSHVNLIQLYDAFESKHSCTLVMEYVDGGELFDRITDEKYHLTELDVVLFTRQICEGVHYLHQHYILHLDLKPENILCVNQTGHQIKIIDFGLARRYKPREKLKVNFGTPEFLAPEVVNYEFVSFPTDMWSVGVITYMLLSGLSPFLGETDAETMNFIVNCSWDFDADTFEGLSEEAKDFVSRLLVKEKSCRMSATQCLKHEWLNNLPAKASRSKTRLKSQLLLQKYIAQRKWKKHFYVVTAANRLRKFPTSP
Excerpt: as §1

TAOK2 = target: T3, TAOK2 (Homo sapiens, UniProt Q9UL54); assay: KINOMEscan 1 μM, TAOK2; assay type: binding; details: 1000 nM; Entrez TAOK2; read-out: Percent Control
T3 construct: purchased Eurofins DiscoverX KINOMEscan
Excerpt: as §1

STK16 = target: T4, STK16 (Homo sapiens, UniProt O75716); assay: KINOMEscan 1 μM, STK16; assay type: binding; details: 1000 nM; Entrez STK16; read-out: Percent Control
T4 construct: purchased Eurofins DiscoverX KINOMEscan
Excerpt: as §1

[1] = target: T5, ABL1(Q252H)-phosphorylated (Homo sapiens, UniProt P00519, Q252H); assay: KINOMEscan 1 μM, ABL1(Q252H)-phosphorylated; assay type: binding; details: 1000 nM; Entrez ABL1; read-out: Percent Control
T5 construct: purchased Eurofins DiscoverX KINOMEscan
Excerpt: as §1

FLT4 = target: T6, FLT4 (Homo sapiens, UniProt P35916); assay: KINOMEscan 1 μM, FLT4; assay type: binding; details: 1000 nM; Entrez FLT4; read-out: Percent Control
T6 construct: purchased Eurofins DiscoverX KINOMEscan
Excerpt: as §1

PIP5K1C = target: T7, PIP5K1C (Homo sapiens, UniProt O60331); assay: KINOMEscan 1 μM, PIP5K1C; assay type: binding; details: 1000 nM; Entrez PIP5K1C; read-out: Percent Control
T7 construct: purchased Eurofins DiscoverX KINOMEscan
Excerpt: as §1

PRKG2 = target: T8, PRKG2 (Homo sapiens, UniProt Q13237); assay: KINOMEscan 1 μM, PRKG2; assay type: binding; details: 1000 nM; Entrez PRKG2; read-out: Percent Control
T8 construct: purchased Eurofins DiscoverX KINOMEscan
Excerpt: as §1

[2] = target: T9, ABL1(H396P)-nonphosphorylated (Homo sapiens, UniProt P00519, H396P); assay: KINOMEscan 1 μM, ABL1(H396P)-nonphosphorylated; assay type: binding; details: 1000 nM; Entrez ABL1; read-out: Percent Control
T9 construct: purchased Eurofins DiscoverX KINOMEscan
Excerpt: as §1

EGFR(L858R,T790M) = target: T10, EGFR(L858R,T790M) (Homo sapiens, UniProt P00533, L858R/T790M); assay: KINOMEscan 1 μM, EGFR(L858R,T790M); assay type: binding; details: 1000 nM; Entrez EGFR; read-out: Percent Control
T10 construct: purchased Eurofins DiscoverX KINOMEscan
Excerpt: as §1

FGFR1 = target: T11, FGFR1 (Homo sapiens, UniProt P11362); assay: KINOMEscan 1 μM, FGFR1; assay type: binding; details: 1000 nM; Entrez FGFR1; read-out: Percent Control
T11 construct: purchased Eurofins DiscoverX KINOMEscan
Excerpt: as §1

HIPK3 = target: T12, HIPK3 (Homo sapiens, UniProt Q9H422); assay: KINOMEscan 1 μM, HIPK3; assay type: binding; details: 1000 nM; Entrez HIPK3; read-out: Percent Control
T12 construct: purchased Eurofins DiscoverX KINOMEscan
T12 sequence (Q9H422 whole entry): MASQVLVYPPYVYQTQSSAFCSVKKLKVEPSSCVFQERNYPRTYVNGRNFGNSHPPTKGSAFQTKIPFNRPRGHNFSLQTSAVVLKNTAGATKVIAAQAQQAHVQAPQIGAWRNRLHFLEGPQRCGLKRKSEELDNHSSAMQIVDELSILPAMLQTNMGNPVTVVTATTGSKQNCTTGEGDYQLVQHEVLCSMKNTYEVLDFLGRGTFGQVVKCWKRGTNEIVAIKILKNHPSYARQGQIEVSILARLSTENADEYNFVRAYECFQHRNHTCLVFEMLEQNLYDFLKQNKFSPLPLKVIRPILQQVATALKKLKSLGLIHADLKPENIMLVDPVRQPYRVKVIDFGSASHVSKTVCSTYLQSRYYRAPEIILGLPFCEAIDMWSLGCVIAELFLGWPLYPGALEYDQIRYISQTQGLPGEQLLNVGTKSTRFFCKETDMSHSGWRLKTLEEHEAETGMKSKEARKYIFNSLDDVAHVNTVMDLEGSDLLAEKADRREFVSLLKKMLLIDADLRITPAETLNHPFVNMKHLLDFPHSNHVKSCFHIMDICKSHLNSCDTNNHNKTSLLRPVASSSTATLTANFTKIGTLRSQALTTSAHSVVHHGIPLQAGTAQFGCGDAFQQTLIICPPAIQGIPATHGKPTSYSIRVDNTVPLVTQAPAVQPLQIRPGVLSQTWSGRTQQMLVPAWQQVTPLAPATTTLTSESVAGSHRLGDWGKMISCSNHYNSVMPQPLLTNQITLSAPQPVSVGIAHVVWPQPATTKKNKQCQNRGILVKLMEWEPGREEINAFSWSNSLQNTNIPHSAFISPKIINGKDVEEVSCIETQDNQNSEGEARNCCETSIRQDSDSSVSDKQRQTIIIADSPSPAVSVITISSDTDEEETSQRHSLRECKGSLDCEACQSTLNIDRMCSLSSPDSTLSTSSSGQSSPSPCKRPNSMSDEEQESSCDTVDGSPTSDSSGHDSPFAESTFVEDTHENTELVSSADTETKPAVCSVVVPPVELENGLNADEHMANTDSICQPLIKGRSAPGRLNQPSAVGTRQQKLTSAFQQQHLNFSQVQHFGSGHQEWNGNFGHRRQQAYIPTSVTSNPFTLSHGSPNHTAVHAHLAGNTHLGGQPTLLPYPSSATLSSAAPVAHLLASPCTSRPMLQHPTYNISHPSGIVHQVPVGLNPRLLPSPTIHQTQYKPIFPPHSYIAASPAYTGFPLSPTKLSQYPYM
Excerpt: as §1

[3] = target: T13, JAK3(JH1domain-catalytic) (Homo sapiens, UniProt P52333); assay: KINOMEscan 1 μM, JAK3(JH1domain-catalytic); assay type: binding; details: 1000 nM; Entrez JAK3; read-out: Percent Control
T13 construct: JAK3(JH1domain-catalytic); purchased Eurofins DiscoverX KINOMEscan
T13 sequence (P52333 813-1124 limits assumed): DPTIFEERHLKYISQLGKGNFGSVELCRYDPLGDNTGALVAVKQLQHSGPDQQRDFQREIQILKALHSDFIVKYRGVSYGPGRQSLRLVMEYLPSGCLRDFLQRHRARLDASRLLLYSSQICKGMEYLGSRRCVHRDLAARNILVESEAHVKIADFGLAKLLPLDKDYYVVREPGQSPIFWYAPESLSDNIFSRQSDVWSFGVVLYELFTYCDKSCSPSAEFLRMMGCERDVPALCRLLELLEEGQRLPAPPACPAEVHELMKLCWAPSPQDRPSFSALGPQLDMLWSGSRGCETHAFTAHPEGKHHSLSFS
Excerpt: as §1

KIT = target: T14, KIT (Homo sapiens, UniProt P10721); assay: KINOMEscan 1 μM, KIT; assay type: binding; details: 1000 nM; Entrez KIT; read-out: Percent Control
T14 construct: purchased Eurofins DiscoverX KINOMEscan
Excerpt: as §1

NEK4 = target: T15, NEK4 (Homo sapiens, UniProt P51957); assay: KINOMEscan 1 μM, NEK4; assay type: binding; details: 1000 nM; Entrez NEK4; read-out: Percent Control
T15 construct: purchased Eurofins DiscoverX KINOMEscan
T15 sequence (P51957 whole entry): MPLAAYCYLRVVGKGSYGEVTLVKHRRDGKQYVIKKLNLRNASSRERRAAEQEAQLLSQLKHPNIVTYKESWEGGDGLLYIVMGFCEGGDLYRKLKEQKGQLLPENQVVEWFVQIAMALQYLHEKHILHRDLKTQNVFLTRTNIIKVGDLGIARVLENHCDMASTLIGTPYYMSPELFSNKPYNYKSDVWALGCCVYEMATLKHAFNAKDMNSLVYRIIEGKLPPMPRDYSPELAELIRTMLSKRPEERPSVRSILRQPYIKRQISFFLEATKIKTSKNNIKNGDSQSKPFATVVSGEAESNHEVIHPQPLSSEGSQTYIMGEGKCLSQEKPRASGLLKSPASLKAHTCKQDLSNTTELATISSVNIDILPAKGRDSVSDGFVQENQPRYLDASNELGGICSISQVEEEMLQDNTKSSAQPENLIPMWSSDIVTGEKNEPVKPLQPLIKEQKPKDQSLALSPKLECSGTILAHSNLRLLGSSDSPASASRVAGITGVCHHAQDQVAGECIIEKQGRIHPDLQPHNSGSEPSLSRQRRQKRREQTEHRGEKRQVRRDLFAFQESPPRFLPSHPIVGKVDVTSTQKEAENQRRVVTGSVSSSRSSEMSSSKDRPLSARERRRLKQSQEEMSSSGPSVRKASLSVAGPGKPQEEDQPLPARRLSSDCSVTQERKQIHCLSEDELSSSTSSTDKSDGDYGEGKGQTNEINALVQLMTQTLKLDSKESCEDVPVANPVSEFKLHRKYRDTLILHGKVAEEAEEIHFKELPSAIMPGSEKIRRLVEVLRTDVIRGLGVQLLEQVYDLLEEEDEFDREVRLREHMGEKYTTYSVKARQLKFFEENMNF
Excerpt: as §1

NEK5 = target: T16, NEK5 (Homo sapiens, UniProt Q6P3R8); assay: KINOMEscan 1 μM, NEK5; assay type: binding; details: 1000 nM; Entrez NEK5; read-out: Percent Control
T16 construct: purchased Eurofins DiscoverX KINOMEscan
Excerpt: as §1

PDGFRB = target: T17, PDGFRB (Homo sapiens, UniProt P09619); assay: DiscoverX KINOMEscan binding assay at 1 μM, PDGFRB; details: Compound Concentration 1000 nM, read-out: Percent Control
T17 construct: purchased Eurofins DiscoverX KINOMEscan
Excerpt: as §1

ROCK1 = target: T18, ROCK1 (Homo sapiens, UniProt Q13464); assay: DiscoverX KINOMEscan binding assay at 1 μM, ROCK1; details: Compound Concentration 1000 nM, read-out: Percent Control
T18 construct: purchased Eurofins DiscoverX KINOMEscan
Excerpt: as §1

SBK1 = target: T19, SBK1 (Homo sapiens, UniProt Q52WX2); assay: DiscoverX KINOMEscan binding assay at 1 μM, SBK1; details: Compound Concentration 1000 nM, read-out: Percent Control
T19 construct: purchased Eurofins DiscoverX KINOMEscan
T19 sequence (Q52WX2 whole entry): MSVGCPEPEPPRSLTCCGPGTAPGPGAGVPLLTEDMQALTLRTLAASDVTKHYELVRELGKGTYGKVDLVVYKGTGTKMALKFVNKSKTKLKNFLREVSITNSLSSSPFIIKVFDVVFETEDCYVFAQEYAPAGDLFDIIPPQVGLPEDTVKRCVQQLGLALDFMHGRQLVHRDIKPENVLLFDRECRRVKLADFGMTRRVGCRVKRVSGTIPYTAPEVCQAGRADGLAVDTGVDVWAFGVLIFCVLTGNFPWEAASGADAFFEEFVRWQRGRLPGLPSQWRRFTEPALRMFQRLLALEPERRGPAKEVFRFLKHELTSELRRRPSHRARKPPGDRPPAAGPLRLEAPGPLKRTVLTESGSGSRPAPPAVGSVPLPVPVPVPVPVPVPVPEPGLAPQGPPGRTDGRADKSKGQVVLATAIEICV
Excerpt: as §1

GRK7 = target: T20, GRK7 (Homo sapiens, UniProt Q8WTQ7); assay: KINOMEscan at 1 μM, GRK7; assay type: binding; details: 1000 nM, read-out: Percent Control
T20 construct: purchased Eurofins DiscoverX KINOMEscan
Excerpt: (§2) Supplement cells-12-00287-s001.zip/File S2. KinomeScan data for the CAMKK2 probe and negative control.xlsx, sheet "SGC-CAMKK2-1N" | column: Percent Control

ERK4 = target: T21, ERK4 (Homo sapiens, UniProt P31152); assay: KINOMEscan at 1 μM, ERK4; assay type: binding; details: 1000 nM, read-out: Percent Control
T21 construct: purchased Eurofins DiscoverX KINOMEscan
Excerpt: as §2

BTK = target: T22, BTK (Homo sapiens, UniProt Q06187); assay: KINOMEscan at 1 μM, BTK; assay type: binding; details: 1000 nM, read-out: Percent Control
T22 construct: purchased Eurofins DiscoverX KINOMEscan
Excerpt: as §2

TGFBR1 = target: T23, TGFBR1 (Homo sapiens, UniProt P36897); assay: KINOMEscan at 1 μM, TGFBR1; assay type: binding; details: 1000 nM, read-out: Percent Control
T23 construct: purchased Eurofins DiscoverX KINOMEscan
T23 sequence (P36897 34-503): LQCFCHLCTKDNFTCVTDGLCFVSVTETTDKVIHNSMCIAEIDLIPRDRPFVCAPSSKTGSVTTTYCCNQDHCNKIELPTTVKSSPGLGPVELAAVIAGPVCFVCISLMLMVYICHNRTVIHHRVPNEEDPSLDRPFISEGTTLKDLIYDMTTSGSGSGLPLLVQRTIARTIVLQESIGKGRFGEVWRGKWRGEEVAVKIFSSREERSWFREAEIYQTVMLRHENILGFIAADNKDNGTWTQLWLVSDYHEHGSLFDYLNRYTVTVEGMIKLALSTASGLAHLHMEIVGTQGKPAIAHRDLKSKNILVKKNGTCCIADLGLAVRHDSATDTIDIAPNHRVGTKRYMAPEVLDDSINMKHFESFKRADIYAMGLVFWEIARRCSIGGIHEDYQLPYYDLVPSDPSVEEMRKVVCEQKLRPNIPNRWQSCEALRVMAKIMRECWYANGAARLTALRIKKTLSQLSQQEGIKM
Excerpt: as §2

CDK4 = target: T24, CDK4 (Homo sapiens, UniProt P11802); assay: KINOMEscan at 1 μM, CDK4; assay type: binding; details: 1000 nM, read-out: Percent Control
T24 construct: purchased Eurofins DiscoverX KINOMEscan
T24 sequence (P11802 whole entry): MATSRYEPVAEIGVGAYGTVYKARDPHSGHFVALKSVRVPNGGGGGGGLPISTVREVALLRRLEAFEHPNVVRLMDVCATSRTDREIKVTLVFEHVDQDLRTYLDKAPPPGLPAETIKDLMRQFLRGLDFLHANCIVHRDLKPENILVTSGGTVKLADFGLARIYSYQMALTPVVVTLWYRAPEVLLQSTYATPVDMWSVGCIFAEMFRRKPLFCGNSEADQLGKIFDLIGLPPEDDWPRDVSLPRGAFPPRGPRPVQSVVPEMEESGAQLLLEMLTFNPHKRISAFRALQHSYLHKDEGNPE
Excerpt: as §2

PAK7 = target: T25, PAK7 (Homo sapiens, UniProt Q9P286); assay: KINOMEscan at 1 μM, PAK7; assay type: binding; details: 1000 nM, read-out: Percent Control
T25 construct: purchased Eurofins DiscoverX KINOMEscan
Excerpt: as §2

SRPK1 = target: T26, SRPK1 (Homo sapiens, UniProt Q96SB4); assay: KINOMEscan at 1 μM, SRPK1; assay type: binding; details: 1000 nM, read-out: Percent Control
T26 construct: purchased Eurofins DiscoverX KINOMEscan
T26 sequence (Q96SB4 whole entry): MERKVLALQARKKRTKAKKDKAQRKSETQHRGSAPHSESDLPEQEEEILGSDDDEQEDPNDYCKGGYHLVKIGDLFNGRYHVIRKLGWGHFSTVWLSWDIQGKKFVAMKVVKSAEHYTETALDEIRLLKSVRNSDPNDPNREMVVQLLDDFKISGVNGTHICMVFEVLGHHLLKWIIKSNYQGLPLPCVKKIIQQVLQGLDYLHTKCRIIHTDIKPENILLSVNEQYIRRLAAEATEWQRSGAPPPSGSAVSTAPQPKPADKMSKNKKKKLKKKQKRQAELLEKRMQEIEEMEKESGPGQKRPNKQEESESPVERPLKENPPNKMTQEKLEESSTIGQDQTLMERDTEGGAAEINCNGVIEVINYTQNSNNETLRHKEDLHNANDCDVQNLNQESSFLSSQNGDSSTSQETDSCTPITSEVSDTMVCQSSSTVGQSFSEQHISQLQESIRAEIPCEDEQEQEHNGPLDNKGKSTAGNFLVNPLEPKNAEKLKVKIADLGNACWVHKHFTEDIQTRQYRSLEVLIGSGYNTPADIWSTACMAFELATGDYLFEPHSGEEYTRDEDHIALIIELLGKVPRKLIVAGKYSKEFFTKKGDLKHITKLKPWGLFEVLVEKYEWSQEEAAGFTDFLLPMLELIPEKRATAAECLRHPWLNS
Excerpt: as §2

MYLK4 = target: T27, MYLK4 (Homo sapiens, UniProt Q86YV6); assay: KINOMEscan at 1 μM, MYLK4; assay type: binding; details: 1000 nM, read-out: Percent Control
T27 construct: purchased Eurofins DiscoverX KINOMEscan
Excerpt: as §2

IKK-epsilon = target: T28, IKK-epsilon (Homo sapiens, UniProt Q14164); assay: KINOMEscan at 1 μM, IKK-epsilon; assay type: binding; details: 1000 nM, read-out: Percent Control
T28 construct: purchased Eurofins DiscoverX KINOMEscan
Excerpt: as §2

CDKL5 = target: T29, CDKL5 (Homo sapiens, UniProt O76039); assay: KINOMEscan at 1 μM, CDKL5; assay type: binding; details: 1000 nM, read-out: Percent Control
T29 construct: purchased Eurofins DiscoverX KINOMEscan
Excerpt: as §2

ERBB2 = target: T30, ERBB2 (Homo sapiens, UniProt P04626); assay: KINOMEscan binding assay at 1 μM, ERBB2; details: Compound Concentration 1000 nM; read-out: Percent Control
T30 construct: purchased Eurofins DiscoverX KINOMEscan
Excerpt: as §2

FLT3(N841I) = target: T31, FLT3(N841I) (Homo sapiens, UniProt P36888, N841I); assay: KINOMEscan binding assay at 1 μM, FLT3(N841I); details: Compound Concentration 1000 nM; read-out: Percent Control
T31 construct: purchased Eurofins DiscoverX KINOMEscan
Excerpt: as §2

MST3 = target: T32, MST3 (Homo sapiens, UniProt Q9Y6E0); assay: KINOMEscan binding assay at 1 μM, MST3; details: Compound Concentration 1000 nM; read-out: Percent Control
T32 construct: purchased Eurofins DiscoverX KINOMEscan
Excerpt: as §2

PIK3CA(M1043I) = target: T33, PIK3CA(M1043I) (Homo sapiens, UniProt P42336, M1043I); assay: KINOMEscan binding assay at 1 μM, PIK3CA(M1043I); details: Compound Concentration 1000 nM; read-out: Percent Control
T33 construct: purchased Eurofins DiscoverX KINOMEscan
Excerpt: as §2

For `Cc1cccc(-c2cnc3occ(-c4ccc(C(=O)O)c(C5CCCC5)c4)c3c2)c1` [SGC-CAMKK2-1 (YL-36)], which remaining binding at 1 µM (SGK2) is on record?
Its remaining binding at 1 µM is 78%.

And the remaining binding at 1 µM (MLCK)?
The remaining binding at 1 µM was 86%.

And the remaining binding at 1 µM (TAOK2)?
Its remaining binding at 1 µM is 90%.

What about the remaining binding at 1 µM (STK16) of the same compound?
Its remaining binding at 1 µM is 93%.

And the remaining binding at 1 µM [1]?
The remaining binding at 1 µM was 96%.

What about the remaining binding at 1 µM (FLT4) of the same compound?
The remaining binding at 1 µM was 96%.

What about the remaining binding at 1 µM (PIP5K1C) of the same compound?
Its remaining binding at 1 µM is 99%.

What about the remaining binding at 1 µM (PRKG2) of the same compound?
Its remaining binding at 1 µM is 99%.

What about the remaining binding at 1 µM [2] of the same compound?
Its remaining binding at 1 µM is 100%.

And the remaining binding at 1 µM (EGFR(L858R,T790M))?
The remaining binding at 1 µM was 100%.

And the remaining binding at 1 µM (FGFR1)?
Its remaining binding at 1 µM is 100%.

And the remaining binding at 1 µM (HIPK3)?
Its remaining binding at 1 µM is 100%.

What about the remaining binding at 1 µM [3] of the same compound?
The remaining binding at 1 µM was 100%.

And the remaining binding at 1 µM (KIT)?
Its remaining binding at 1 µM is 100%.

What about the remaining binding at 1 µM (NEK4) of the same compound?
Its remaining binding at 1 µM is 100%.

What about the remaining binding at 1 µM (NEK5) of the same compound?
Its remaining binding at 1 µM is 100%.

What about the remaining binding at 1 µM (PDGFRB) of the same compound?
Its remaining binding at 1 µM is 100%.

And the remaining binding at 1 µM (ROCK1)?
Its remaining binding at 1 µM is 100%.

What about the remaining binding at 1 µM (SBK1) of the same compound?
Its remaining binding at 1 µM is 100%.

Which remaining binding at 1 µM (GRK7) does the source give for `O=C(O)c1ccc(-c2coc3ncc(-c4ccccc4)cc23)cc1Cl` [SGC-CAMKK2-1N (UNC-YL-83)] here?
The remaining binding at 1 µM was 50%.

And the remaining binding at 1 µM (ERK4)?
The remaining binding at 1 µM was 58%.

And the remaining binding at 1 µM (BTK)?
Its remaining binding at 1 µM is 60%.

What about the remaining binding at 1 µM (TGFBR1) of the same compound?
Its remaining binding at 1 µM is 80%.

And the remaining binding at 1 µM (CDK4)?
Its remaining binding at 1 µM is 82%.

What about the remaining binding at 1 µM (PAK7) of the same compound?
The remaining binding at 1 µM was 84%.

And the remaining binding at 1 µM (SRPK1)?
The remaining binding at 1 µM was 85%.

And the remaining binding at 1 µM (MYLK4)?
Its remaining binding at 1 µM is 91%.

What about the remaining binding at 1 µM (IKK-epsilon) of the same compound?
The remaining binding at 1 µM was 98%.

What about the remaining binding at 1 µM (CDKL5) of the same compound?
Its remaining binding at 1 µM is 100%.

What about the remaining binding at 1 µM (ERBB2) of the same compound?
Its remaining binding at 1 µM is 100%.

What about the remaining binding at 1 µM (FLT3(N841I)) of the same compound?
The remaining binding at 1 µM was 100%.

And the remaining binding at 1 µM (MST3)?
The remaining binding at 1 µM was 100%.

What about the remaining binding at 1 µM (PIK3CA(M1043I)) of the same compound?
Its remaining binding at 1 µM is 100%.
